As usually defined, the IC50 is the midpoint of a concentration-inhibition curve.

This passage reports IC50 results from patent publication US11168095B2, “ASK1 inhibiting agents” (BIOGEN MA INC., priority 2017, dated 2021).

The target in one assay is GST-hASK1 (Homo sapiens (Human), UniProt Q99683). Put plainly: ASK1 TR-FRET assay. The format is biochemical. To be noted: 5 nM GST-hASK1, 100 μM ATP, 2 μM STK Substrate 3. The procedure: The protein kinase activity of 5 nM GST-hASK1(Life Technologies PV4011) was assayed with 100 μM ATP and 2 μM of HTRF biotinylated STK Substrate 3 (CisBio Kit 62ST3PEJ), at ambient temperature in 25 mM Hepes, pH 7.5, 50 mM NaCl, 10 mM MgCl2, 0.02% Brij-35, 1 mM DTT, and 1% DMSO.
After a 10 minute pre-incubation, ASK1 protein kinase activity was initiated by addition of 10 μL of 300 μM ATP.
A general note: Time-resolved FRET reads energy transfer from a long-lived donor to a nearby acceptor.

Assay [1] addresses ASK1 T838 auto phosphorylation in HEK-293T cells (Homo sapiens (Human), UniProt Q99683). Kind of assay: ASK1 (AUTO PHOS T838) assay, MSD format. The format is cell-based. To be noted: HEK 293T cells transfected with ASK1-V5 full length plasmid, compounds 1 hr at 37° C.; read-out: IC50.
The next assay concerns the target ASK1/MAP3K5 (Homo sapiens (Human), UniProt Q99683). Kind of assay: ASK1/MAP3K5 assay by Reaction Biology Corp. It counts as biochemical. The procedure:
ASK1/MAP3K5 was used as the protein kinase and 20 μM of myelin basic protein (MBP) and 10 μM ATP were used as the substrate.

The mark [2] stands for this setting: 20 μM myelin basic protein (MBP), 10 μM ATP.

Where two headings read alike, the source gives them in different places.

Chain of ASK1/MAP3K5 (Q99683 whole entry): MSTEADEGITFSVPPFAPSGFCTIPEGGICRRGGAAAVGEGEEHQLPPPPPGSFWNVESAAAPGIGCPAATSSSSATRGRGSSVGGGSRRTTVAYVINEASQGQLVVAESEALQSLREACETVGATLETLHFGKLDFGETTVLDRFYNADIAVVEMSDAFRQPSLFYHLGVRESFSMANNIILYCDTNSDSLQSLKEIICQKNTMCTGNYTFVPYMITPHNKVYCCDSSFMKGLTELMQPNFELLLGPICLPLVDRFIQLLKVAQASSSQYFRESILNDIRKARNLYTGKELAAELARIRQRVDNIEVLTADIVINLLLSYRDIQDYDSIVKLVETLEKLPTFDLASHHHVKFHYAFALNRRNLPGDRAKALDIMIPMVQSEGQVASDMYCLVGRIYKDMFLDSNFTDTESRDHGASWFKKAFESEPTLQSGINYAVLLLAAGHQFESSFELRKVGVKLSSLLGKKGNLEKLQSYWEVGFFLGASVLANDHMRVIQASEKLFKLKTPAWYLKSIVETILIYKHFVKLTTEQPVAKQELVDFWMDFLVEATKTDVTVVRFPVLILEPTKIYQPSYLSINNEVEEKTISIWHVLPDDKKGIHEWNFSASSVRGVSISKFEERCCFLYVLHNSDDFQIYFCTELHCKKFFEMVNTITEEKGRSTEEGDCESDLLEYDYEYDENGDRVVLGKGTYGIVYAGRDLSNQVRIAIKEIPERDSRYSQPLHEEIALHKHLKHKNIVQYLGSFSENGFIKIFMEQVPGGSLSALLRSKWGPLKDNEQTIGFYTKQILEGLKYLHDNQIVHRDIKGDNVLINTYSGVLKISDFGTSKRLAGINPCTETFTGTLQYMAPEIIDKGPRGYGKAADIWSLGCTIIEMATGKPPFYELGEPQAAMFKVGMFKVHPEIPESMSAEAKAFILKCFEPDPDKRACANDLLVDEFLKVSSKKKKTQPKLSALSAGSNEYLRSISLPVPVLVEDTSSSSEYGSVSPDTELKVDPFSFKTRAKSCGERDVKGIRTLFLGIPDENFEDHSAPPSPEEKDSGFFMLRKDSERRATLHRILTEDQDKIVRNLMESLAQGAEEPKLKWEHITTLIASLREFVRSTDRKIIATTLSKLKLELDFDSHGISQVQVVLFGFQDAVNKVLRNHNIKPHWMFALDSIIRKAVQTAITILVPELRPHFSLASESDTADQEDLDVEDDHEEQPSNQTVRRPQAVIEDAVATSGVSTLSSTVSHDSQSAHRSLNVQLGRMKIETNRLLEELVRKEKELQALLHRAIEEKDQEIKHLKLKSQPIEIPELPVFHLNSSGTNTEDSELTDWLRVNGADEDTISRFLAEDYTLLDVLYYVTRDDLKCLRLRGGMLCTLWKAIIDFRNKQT
Chain of ASK1 T838 auto phosphorylation in HEK-293T cells (Q99683 whole entry): as above
Chain of GST-hASK1 (Q99683 649-946): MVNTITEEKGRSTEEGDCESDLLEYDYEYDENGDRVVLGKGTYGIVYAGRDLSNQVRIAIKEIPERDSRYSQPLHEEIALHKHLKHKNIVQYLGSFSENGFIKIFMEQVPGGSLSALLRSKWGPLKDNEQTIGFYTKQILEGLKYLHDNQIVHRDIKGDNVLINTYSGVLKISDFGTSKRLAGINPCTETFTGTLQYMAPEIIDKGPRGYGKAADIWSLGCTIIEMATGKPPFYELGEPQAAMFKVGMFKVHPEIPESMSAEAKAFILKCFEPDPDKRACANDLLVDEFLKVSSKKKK

On to `O=C1Nc2cccc(n2)-c2nncn2CCCCOc2ccc(N3CC4CCC(C3)O4)cc21` [Example 7, 5^5-(8-Oxa-3-azabicyclo[3.2.1]octan-3-yl)-1^4H-6-oxa-3-aza-2(2,6)-pyridina-1(3,4)-triazola-5(1,2)-benzenacyclodecaphan-4-one], for which the half-inhibitory concentration (IC50) was less than 0.1 µM at GST-hASK1 and less than 1 µM in assay [1].
Turning to `CCN1CCN(c2ccc3c(c2)C(=O)Nc2cccc(n2)-c2nncn2CCCCO3)CC1` [Example 13, 5^5-(4-Ethylpiperazin-1-yl)-1^4H-6-oxa-3-aza-2(2,6)-pyridina-1(3,4)-triazola-5(1,2)-benzenacyclodecaphan-4-one], the values for the IC50 (against GST-hASK1; in assay [1]) were less than 0.1 µM and less than 1 µM, respectively.
`O=C1Nc2cccc(n2)-c2nncn2CCCCOc2ccc(C3=CCOC3)cc21` [Example 14, 5^5-(2,5-Dihydrofuran-3-yl)-1^4H-6-oxa-3-aza-2(2,6)-pyridina-1(3,4)-triazola-5(1,2)-benzenacyclodecaphan-4-one]: the IC50 on GST-hASK1 is less than 0.1 µM; in assay [1], less than 1 µM.
`O=C1Nc2cccc(n2)-c2nncn2CCCCOc2ccc(C3=CCOCC3)cc21` [Example 16, 5^5-(3,6-Dihydro-2H-pyran-4-yl)-1^4H-6-oxa-3-aza-2(2,6)-pyridina-1(3,4)-triazola-5(1,2)-benzenacyclodecaphan-4-one]: the IC50 against GST-hASK1 is less than 0.1 µM; in assay [1], less than 1 µM.
For the compound `C=Cc1ccc2c(c1)C(=O)Nc1cccc(n1)-c1nncn1CCCCO2` [Example 19, 5^5-Vinyl-1^4H-6-oxa-3-aza-2(2,6)-pyridina-1(3,4)-triazola-5(1,2)-benzenacyclodecaphan-4-one], the 50% inhibitory concentration (IC50) against GST-hASK1 was less than 0.1 µM; in assay [1], less than 1 µM.
Consider `Cn1cc(-c2ccc3c(c2)C(=O)Nc2cccc(n2)-c2nncn2CCCCO3)nn1` [Example 30, 5^5-(1-Methyl-1H-1,2,3-triazol-4-yl)-1^4H-6-oxa-3-aza-2(2,6)-pyridina-1(3,4)-triazola-5(1,2)-benzenacyclodecaphan-4-one], for which the 50% inhibitory concentration (IC50) at GST-hASK1 is less than 0.1 µM; in assay [1], 1 to 10 µM.
`O=C1Nc2cccc(n2)-c2nncn2CCCCOc2ccc(C(=O)N3CCCC3)cc21` [Example 31, 5^5-(Pyrrolidine-1-carbonyl)-1^4H-6-oxa-3-aza-2(2,6)-pyridina-1(3,4)-triazola-5(1,2)-benzenacyclodecaphan-4-one]: the IC50 at GST-hASK1 is 0.1 to 1 µM.
`C[C@@H]1CCCOc2ccc(-c3cnn(C)c3)cc2C(=O)Nc2cccc(n2)-c2nncn21` [Example 95, (R)-10-Methyl-5^5-(1-methyl-1H-pyrazol-4-yl)-1^4H-6-oxa-3-aza-2(2,6)-pyridina-1(3,4)-triazola-5(1,2)-benzenacyclodecaphan-4-one]: the IC50 is 0.1 to 1 µM at GST-hASK1 and 1 to 10 µM in assay [1].
With `C[C@@H]1CCCn2cnnc2-c2cccc(n2)NC(=O)c2cc(C#N)ccc2O1` [Example 151, (R)-7-Methyl-4-oxo-1^4H-6-oxa-3-aza-2(2,6)-pyridina-1(3,4)-triazola-5(1,2)-benzenacyclodecaphane-5^5-carbonitrile], the IC50 was less than 0.1 µM on ASK1/MAP3K5 (setting [2]) and less than 1 µM in assay [1].
On to `CN1C(=O)c2cc(Br)ccc2OCCCCn2cnnc2-c2cccc1n2` [Example 152, 5^5-Bromo-3-methyl-1^4H-6-oxa-3-aza-2(2,6)-pyridina-1(3,4)-triazola-5(1,2)-benzenacyclodecaphan-4-one], for which the IC50 on GST-hASK1 (class given in words) is no less than 10 µM; in assay [1], greater than 10 µM.
Consider `O=C1Nc2cccc(n2)-c2nncn2CCCCOc2cc(C(F)(F)F)ccc21` [Example 153, 5^4-(Trifluoromethyl)-1^4H-6-oxa-3-aza-2(2,6)-pyridina-1(3,4)-triazola-5(1,2)-benzenacyclodecaphan-4-one], for which the IC50 was less than 0.1 µM on GST-hASK1 and less than 1 µM in assay [1].
In the case of `O=C1Nc2cccc(n2)-c2nncn2C/C=C/COc2cc(C(F)(F)F)ccc21` [Example 154, (E)-5^4-(Trifluoromethyl)-1^4H-6-oxa-3-aza-2(2,6)-pyridina-1(3,4)-triazola-5(1,2)-benzenacyclodecaphan-8-en-4-one], the IC50 is 0.1 to 1 µM against GST-hASK1 and 1 to 10 µM in assay [1].
As for `O=C1Nc2cccc(n2)-c2nncn2C/C=C\COc2cc(C(F)(F)F)ccc21` [Example 155, (Z)-5^4-(Trifluoromethyl)-1^4H-6-oxa-3-aza-2(2,6)-pyridina-1(3,4)-triazola-5(1,2)-benzenacyclodecaphan-8-en-4-one], the IC50 at GST-hASK1 fell in the range of 0.1 to 1 µM; in assay [1], 1 to 10 µM.
With `O=C1Nc2cccc(n2)-c2nncn2CCCCOc2c(Br)cccc21` [Example 165, 5^3-Bromo-1^4H-6-oxa-3-aza-2(2,6)-pyridina-1(3,4)-triazola-5(1,2)-benzenacyclodecaphan-4-one], the figures for the IC50 (against ASK1/MAP3K5 (setting [2]); in assay [1]) were 0.1 to 1 µM and 1 to 10 µM, respectively.
As for `O=C1Nc2cccc(n2)-c2nncn2C/C=C/COc2ccc(N3CCOCC3)cc21` [Example 168, (E)-5^5-Morpholino-1^4H-6-oxa-3-aza-2(2,6)-pyridina-1(3,4)-triazola-5(1,2)-benzenacyclodecaphan-8-en-4-one], the values for the IC50 (against ASK1/MAP3K5; in assay [1]) were less than 0.1 µM and less than 1 µM, respectively.
For `O=C1Nc2cccc(n2)-c2nncn2CCCCCOc2ccc(Br)cc21` [Example 170, 5^5-Bromo-1^4H-6-oxa-3-aza-2(2,6)-pyridina-1(3,4)-triazola-5(1,2)-benzenacycloundecaphan-4-one], the IC50 on GST-hASK1 is less than 0.1 µM.
Consider `O=C1Nc2cccc(n2)-c2nncn2C/C=C\CCOc2ccccc21` [Example 174, (E)-1^4H-6-Oxa-3-aza-2(2,6)-pyridina-1(3,4)-triazola-5(1,2)-benzenacycloundecaphan-9-en-4-one], for which the IC50 on ASK1/MAP3K5 (setting [2]) is less than 0.1 µM; in assay [1] it was less than 1 µM.
With `O=C1Nc2cccc(n2)-c2nncn2C/C=C/CCOc2ccccc21` [Example 175, (Z)-1^4H-6-oxa-3-aza-2(2,6)-pyridina-1(3,4)-triazola-5(1,2)-benzenacycloundecaphan-9-en-4-one], the IC50 was less than 0.1 µM on ASK1/MAP3K5 (setting [2]) and less than 1 µM in assay [1].
Taken in the same sequence, the figures for `O=C1Nc2cccc(n2)-c2nncn2C/C=C\CCOc2cc(F)c(Br)cc21` [Example 176, (E)-5^5-Bromo-5^4-fluoro-1^4H-6-oxa-3-aza-2(2,6)-pyridina-1(3,4)-triazola-5(1,2)-benzenacycloundecaphan-9-en-4-one] were less than 0.1 µM and 1 to 10 µM.
On the same counts, the results for `O=C1Nc2cccc(n2)-c2nncn2C/C=C/CCOc2cc(F)c(Br)cc21` [Example 177, (Z)-5^5-Bromo-5^4-fluoro-1^4H-6-oxa-3-aza-2(2,6)-pyridina-1(3,4)-triazola-5(1,2)-benzenacycloundecaphan-9-en-4-one] are less than 0.1 µM and 1 to 10 µM.
For `CN(C)CCn1cc(-c2cc3c(cc2F)OCC/C=C/Cn2cnnc2-c2cccc(n2)NC3=O)cn1` [Example 178, (E)-5^5-(1-(2-(Dimethylamino)ethyl)-1H-pyrazol-4-yl)-5^4-fluoro-1^4H-6-oxa-3-aza-2(2,6)-pyridina-1(3,4)-triazola-5(1,2)-benzenacycloundecaphan-9-en-4-one], the results for the concentration for half-maximal inhibition (IC50) (against ASK1/MAP3K5 (setting [2]); in assay [1]) were less than 0.1 µM and less than 1 µM, respectively.
For the compound `CN(C)CCn1cc(-c2cc3c(cc2F)OCC/C=C\Cn2cnnc2-c2cccc(n2)NC3=O)cn1` [Example 179, (Z)-5^5-(1-(2-(Dimethylamino)ethyl)-1H-pyrazol-4-yl)-5^4-fluoro-1^4H-6-oxa-3-aza-2(2,6)-pyridina-1(3,4)-triazola-5(1,2)-benzenacycloundecaphan-9-en-4-one], the IC50 at ASK1/MAP3K5 (setting [2]) was less than 0.1 µM; in assay [1], less than 1 µM.
As for `O=C1Nc2cccc(n2)-c2nncn2C/C=C\CCOc2cc(F)c(-c3ccncc3)cc21` [Example 180, (Z)-5^4-Fluoro-5^5-(pyridin-4-yl)-1^4H-6-oxa-3-aza-2(2,6)-pyridina-1(3,4)-triazola-5(1,2)-benzenacycloundecaphan-9-en-4-one], the values for the IC50 (against ASK1/MAP3K5 (setting [2]); in assay [1]) were less than 0.1 µM and less than 1 µM, respectively.
With `O=C1Nc2cccc(n2)-c2nncn2C/C=C\CCOc2cc(F)c(N3CCOCC3)cc21` [Example 181, (Z)-5^4-Fluoro-5^5-morpholino-1^4H-6-oxa-3-aza-2(2,6)-pyridina-1(3,4)-triazola-5(1,2)-benzenacycloundecaphan-9-en-4-one], the figures for the IC50 (against ASK1/MAP3K5 (setting [2]); in assay [1]) were less than 0.1 µM and less than 1 µM, respectively.
Turning to `O=C1Nc2cccc(n2)-c2nncn2CCCOc2ccc(Br)cc21` [Example 183, 5^5-Bromo-1^4H-6-oxa-3-aza-2(2,6)-pyridina-1(3,4)-triazola-5(1,2)-benzenacyclononaphan-4-one], the half-inhibitory concentration (IC50) on GST-hASK1 lay within 1 to 10 µM.
In turn, `O=C1Nc2cccc(n2)-c2nncn2CCCOc2ccc(N3CCOCC3)cc21` [Example 184, 5^5-Morpholino-1^4H-6-oxa-3-aza-2(2,6)-pyridina-1(3,4)-triazola-5(1,2)-benzenacyclononaphan-4-one] returned an IC50 against GST-hASK1 of 0.1 to 1 µM.
On to “(R)-5^4-Bromo-10-methyl-1^4H-6-oxa-3-aza-2(2,6)-pyridina-1(3,4)-triazola-5(1,2)-benzenacyclodecaphan-4-one [Example 121]”, for which the results for the IC50 (on ASK1/MAP3K5 (setting [2]); in assay [1]) were 1 to 10 µM and greater than 10 µM, respectively.
As to “(S)-5^4-Bromo-10-methyl-1^4H-6-oxa-3-aza-2(2,6)-pyridina-1(3,4)-triazola-5(1,2)-benzenacyclodecaphan-4-one [Example 120]”, the IC50 on ASK1/MAP3K5 (setting [2]) is less than 0.1 µM; in assay [1] it was less than 1 µM.
